Source: patent US20040076581A1, “Use of neuropeptide y1 receptor binding compounds in the treatment and diagnosis of cancer” (priority 2000, published 2004)
“Also recorded” adds a separate entry of the source.

Columns and labels:
[1] = target: T1, Y1 in human breast carcinoma (Homo sapiens, UniProt P25929); assay: NPY receptor autoradiography, displacement of 125I-PYY in breast carcinoma sections; type: binding; settings: FIG. 2; increasing concentrations; Y1-expressing breast tumor
T1 construct: Twenty-μm thick cryostat sections of the tissue samples were processed for NPY receptor autoradiography; from tissue; host or cells: human breast carcinoma cryostat sections
T1 sequence (P25929 1-384): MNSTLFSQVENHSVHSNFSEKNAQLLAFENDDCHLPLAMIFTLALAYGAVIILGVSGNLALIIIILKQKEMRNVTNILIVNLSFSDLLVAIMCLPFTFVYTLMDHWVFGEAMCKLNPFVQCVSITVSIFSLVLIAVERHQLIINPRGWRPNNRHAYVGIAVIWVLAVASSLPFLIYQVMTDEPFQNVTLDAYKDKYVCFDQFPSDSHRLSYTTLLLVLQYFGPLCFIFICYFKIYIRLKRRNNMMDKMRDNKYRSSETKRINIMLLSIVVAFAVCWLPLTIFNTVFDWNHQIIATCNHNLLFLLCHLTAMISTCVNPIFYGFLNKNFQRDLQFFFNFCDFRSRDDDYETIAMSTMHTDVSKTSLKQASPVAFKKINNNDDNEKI
Procedure: For autoradiography, tissue sections were mounted on precleaned microscope slides and stored at −20° C. for at least 3 days to improve adhesion of the tissue to the slide.
(§1) On completion of the incubation, the slides were washed four times for 5 min each in ice-cold preincubation solution, pH 7.4. They were rinsed twice in ice-cold distilled water, and then dried under a stream of cold air at 4° C., apposed to ^3H-Hyperfilms and exposed for 7 days in x-ray cassettes.
(§2) Tissue standards for iodinated compounds (Amersham) were used for this purpose.

[2] = target: T2, Y2 receptors in normal breast (Homo sapiens, UniProt P49146); assay: NPY receptor autoradiography, displacement of 125I-PYY in adjacent normal breast sections; type: binding; settings: FIG. 1; surrounding normal breast expressing predominantly Y2
T2 construct: Twenty-μm thick cryostat sections of the tissue samples were processed for NPY receptor autoradiography; from tissue; host or cells: human normal breast tissue adjacent to carcinoma, cryostat sections
T2 sequence (P49146 1-381): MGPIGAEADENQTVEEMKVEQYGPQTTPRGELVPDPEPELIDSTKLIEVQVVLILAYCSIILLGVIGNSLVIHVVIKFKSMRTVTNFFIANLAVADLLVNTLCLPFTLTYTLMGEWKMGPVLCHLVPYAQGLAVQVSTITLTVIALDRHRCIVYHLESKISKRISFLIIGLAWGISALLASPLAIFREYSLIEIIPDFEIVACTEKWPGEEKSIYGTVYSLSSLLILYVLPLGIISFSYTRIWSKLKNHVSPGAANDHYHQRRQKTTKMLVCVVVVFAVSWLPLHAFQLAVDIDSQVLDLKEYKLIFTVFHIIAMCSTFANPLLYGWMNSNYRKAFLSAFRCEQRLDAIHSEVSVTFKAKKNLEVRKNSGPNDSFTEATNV
Procedure: For autoradiography, tissue sections were mounted on precleaned microscope slides and stored at −20° C. for at least 3 days to improve adhesion of the tissue to the slide. […] The slides were incubated at room temperature with the radioligand for 120 min.
In selected cases, displacements with a single concentration (25 nM) of each of the above mentioned peptides were performed.
as §1, §2

[3] = target: T3, NPY receptors in breast carcinoma (Homo sapiens, UniProt P25929); assay: NPY receptor autoradiography, total binding of radioligands to breast carcinoma
T3 construct: Twenty-μm thick cryostat sections of the tissue samples were processed for NPY receptor autoradiography; from tissue; host or cells: human breast carcinoma cryostat sections
T3 sequence (P25929 1-384): T1 sequence (P25929 1-384)
Procedure: (§3) Twenty-μm thick cryostat sections of the tissue samples were processed for NPY receptor autoradiography as described in detail previously for other peptide receptors (Reubi, J. C. et al. Cancer Res. 50, 5969-5977 (1990)). One radioligand used was ^125I-PYY (2'000 Ci/mmol; […], Switzerland), known to specifically label NPY receptors. For autoradiography, tissue sections were mounted on precleaned microscope slides and stored at -20° C. for at least 3 days to improve adhesion of the tissue to the slide. Sections were then processed according to Dumont et al. (J. Neurosci. 13, 73-86 (1993)). They were first preincubated in 119 mM NaCl, 3.2 mM KCl, 1.19 mM KH2PO4, 1.19 mm MgSO4, 25 mM NaHCO3, 2.53 mM CaCl2×2H2O and 10 mM D-glucose, pH 7.4 (preincubation solution), for 60 min at room temperature. The slides were then incubated in a solution containing the same medium as the preincubation solution in which the following compounds were added: 0.1% bovine serum albumin, 0.05% bacitracin, pH 7.4, and the radioligand, at approximate concentration of 22 pM ^125I-PYY. The slides were incubated at room temperature with the radioligand for 120 min. On completion of the incubation, the slides were washed four times for 5 min each in ice-cold preincubation solution, pH 7.4. They were rinsed twice in ice-cold distilled water, and then dried under a stream of cold air at 4° C., apposed to ^3H-Hyperfilms and exposed for 7 days in x-ray cassettes. […] Int 21, 45-67 (1992); […] Neurosci. 76, 215-224 (1997)). Identical experimental conditions as mentioned for ^125I-PYY were used. The autoradiograms were quantified using a computer-assisted image processing system, as described previously (Reubi et al. (1990), supra; […] & Reubi Can. Res. 59,1152-1159 (1999)). Tissue standards for iodinated compounds (Amersham) were used for this purpose. A tissue was defined as receptor-positive when the optical density measured in the total binding section was at least twice that of the nonspecific binding section (in the presence of 10^-7 mol/L PYY).

[4] = test system: NPY receptors in normal breast; assay: NPY receptor autoradiography, total binding of radioligands to adjacent normal breast; parameters: species or system human; settings: FIG. 1
Procedure: as §3

Compound	displacement of 125I-PYY, competition curves [1]	labeling of tumor by radioligand (total binding) ([3]; FIG. 1)	labeling of breast by radioligand (total binding) [4]	further results
C[C@H](N)C(=O)NCC(=O)N[C@H]1CSSC[C@@H](C(=O)O)NC(=O)[C@H](CO)NC(=O)[C@H]([C@@H](C)O)NC(=O)[C@H](Cc2ccccc2)NC(=O)[C@H]([C@@H](C)O)NC(=O)[C@H](CCCCN)NC(=O)[C@H](Cc2c[nH]c3ccccc23)NC(=O)[C@H](Cc2ccccc2)NC(=O)[C@H](Cc2ccccc2)NC(=O)[C@H](CC(N)=O)NC(=O)[C@H](CCCCN)NC1=O [Somatostatin]	inactive	–	–	–
PYY(13-36)	not	–	–	–
PYY: member of the NPY family of 36 amino acid long peptides [peptide YY]	high affinity displacement	–	–	–
[Leu^31, Pro^34]-NPY	–	–	–	affinity in surrounding breast (rank order of potency) [2]: low affinity
[Leu^31, Pro^34]-PYY	completely displace the radiotracer with high affinity; also recorded: high affinity displacement	–	–	affinity in surrounding breast (rank order of potency) [2]: low affinity
^125I-PYY	–	strong labeling	strong labeling	–
^125I-PYY(3-36)	–	not seen	labeled	–
^125I-[Leu^31, Pro^34]-PYY	–	strongly labeled	not or only very weakly visible	labeling of tumor by radioligand (total binding) ([3]; FIG. 1, Pro^34]-PYY): labeled
